Laboratory results reported in the METLIN SMRT retention time set (Domingo-Almenara et al. 2019).

Assay: gradient 5% acetonitrile 3 min, to 50% in 2 min, to 85% in 15 min, held 3 min, 100 µL/min
Conditions: column: Zorbax Extend-C18 2.1 x 50 mm; eluents: water / acetonitrile, 0.1% formic acid
Summary of the method: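 The system's dead and dwell volumes were 40 μL and 900 μL, with a Zorbax Extend-C18 column (2.1 × 50 mm, 1.8 μm) run at 100 μL/min in water and acetonitrile containing 0.1% formic acid each. Pure standards were analyzed in mixtures of ~100 molecules by HPLC–quadrupole time-of-flight mass spectrometry in positive and negative ionization mode. Retention time was assigned from computationally picked, manually inspected adduct peaks.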

SMILES	RP-LC retention time [s]
CN(C)c1cccc(C(=O)NC2CCN(c3cc(-c4ccc(F)cc4)[nH]n3)C2)c1 (stereo not drawn)	684
CCSc1nnc(-c2nn(C)c3c2CN(S(=O)(=O)c2ccccc2Cl)CC3)n1CC	948
CCCCNC(=O)C1CCN(Cc2cc3ccccc3n2Cc2ccccc2Cl)CC1	788
Cc1cccc(OCC(=O)Nc2ccc3c(c2)Sc2ncccc2C(=O)N3C(C)C)c1	972
COc1cc(C2CC(=O)c3cnc(N4CCN(CCO)CC4)nc3C2)cc(OC)c1OC (stereo not drawn)	559
O=C(N1CC(Oc2ccc(-c3noc(-c4ccccc4)n3)cc2)C1)C1(c2ccccc2)CC1	1320
O=C(c1ccc2nc[nH]c2c1)N1CCC(c2nc(-c3ccccc3)no2)C1 (stereo not drawn)	626
Cc1noc(C)c1Cc1ccc(C(=O)NCC23CCC=C2N(C)C(=O)CC3)o1 (stereo not drawn)	727
O=C(NCCc1c[nH]c2ccc(Cl)cc12)c1sc2ncccc2c1-n1cccc1	1060
c1ccc2sc(SCc3cn4cccnc4n3)nc2c1	622
COc1ccc(-c2nc3cnccn3c2Nc2ccc(C(=O)N3CCOCC3)cc2)cc1	664
Cc1cccc(N2CCN(c3cc(C(=O)O)c4cc(NC(=O)C(C)C)ccc4n3)CC2)c1C	732
COC(=O)c1ccc(CSc2nnc(CNC(=O)c3cccc([N+](=O)[O-])c3C)o2)o1	732
Cc1ccc(-c2nnc(-c3cccc(S(=O)(=O)NC(C)(C)CO)c3)o2)cc1	955
O=C(Cn1nc2c3cc(-c4ccc(F)cc4)nn3ccn2c1=O)NC1CCCC1	824
Cc1cc(=O)n(CC(=O)NCc2ccccc2)c(N)n1	570
COc1ccccc1CNC1=NCCNC12CCN(S(=O)(=O)c1ccc(Cl)cc1)CC2	750
COc1ccc2c(c1)C1(CCN(C(=O)Nc3cccc(C)c3)C1)C(=O)N2 (stereo not drawn)	730
O=S(=O)(CCc1noc(-c2ccc3c(c2)OCO3)n1)c1ccccc1	899
Cn1c(=O)c(N2CCN(C(=O)c3ccc(F)cc3F)CC2)nc2ccncc21	586
Cc1ccc2nc(-c3ccccc3O)c(Nc3ccccc3C)n2c1	751
CC(C)C(=O)Nc1ccc(C2(C(=O)Nc3ccc(N4CCOCC4)cc3)CCCCC2)cc1	888

SMILES	RP-LC retention time [s]
COc1ccccc1-c1cc2c(=O)n(Cc3nc(-c4ccccc4OC)oc3C)ccn2n1	1020
CCOC(=O)c1[nH]c(C)c(CN(Cc2ccco2)C(=O)c2ccc3c(c2)OCO3)c1C	935
O=C(Cc1cccs1)N1CCC(Nc2ncnc3c2CCC3)CC1	590
COc1ccc(CNC(=O)c2c(C)oc3ccn(C)c(=O)c23)cc1	824
CC(C)(C)c1nnc(NC(=O)C2CC(=O)N(CCc3c[nH]c4ccc(F)cc34)C2)s1 (stereo not drawn)	782
CCN1CCN(c2nc3cc(C(=O)OC)ccc3c(=O)n2-c2ccc3c(c2)OCO3)CC1	648
CCOc1nc2ccccc2nc1N1CCCC(C(=O)Nc2ccc(Br)cc2C)C1 (stereo not drawn)	1320
O=C(Nc1nc(-c2ccccc2)cs1)c1sc2cc([N+](=O)[O-])ccc2c1Cl	1260
COc1ccc(OC)c(CNC(=O)CN2C(=O)CSc3cccn3-c3ccccc32)c1	914
COc1ccc(Cl)cc1C(=O)NCc1c(C)nc2sc(C)nn12	673
CCN1C(=O)CCc2cc(NS(=O)(=O)c3ccc(C(F)(F)F)cc3)ccc21	858
CC1=C(c2ccc(C)cc2)S(=O)(=O)N=C1N1CCCN(C(=O)NC2CCCC2)CC1	857
CCC(=O)N1CCc2cc(N3CC(C(=O)N4CCN(C(C)C)CC4)CC3=O)ccc21 (stereo not drawn)	580
CCOC(=O)c1nc(NCC2CCN(Cc3ccccc3C)CC2)c2c(C)noc2n1	738
COc1ccc(-c2noc(C3CCCN3C(=O)Nc3cccc(Cl)c3)n2)cc1 (stereo not drawn)	1020
Cc1ccn2c(Nc3ccccc3C)c(-c3cc(Br)ccc3F)nc2c1	814
O=C(Cc1cccs1)NC1CC(=O)N(C2CC2)C1 (stereo not drawn)	584
CCC(=O)Nc1ccc(CCc2nc3ccc(C(=O)NC4CC4)cc3[nH]2)cc1	582
Cc1cccc(N2CCN(c3cc(C)nc4c5c(C)cc(C)nc5nn34)CC2)n1	561
CCOC(=O)c1cc(S(=O)(=O)N2CCCC2C(=O)NCc2cccs2)cn1C (stereo not drawn)	823
CN(C)c1cc(C(N)=O)c2cccc(Cl)c2n1	638
O=C(NCc1ccccc1Cl)C(=O)NCC(c1ccc2c(c1)OCO2)N1CCOCC1 (stereo not drawn)	678

SMILES	RP-LC retention time [s]
COc1ccc(NC(=O)N2CCN(CCn3c(C(C)C)nc4cccnc43)CC2)c(OC)c1	592
CC(=O)Nc1nnc(SCc2nnc(-c3ccc4c(c3)OCO4)o2)s1	678
COc1cc(-c2noc(Cn3cnc4c(oc5ccccc54)c3=O)n2)cc(OC)c1OC	857
COC(=O)c1cccc(C(=O)NC2CCN(C(=O)c3cc(-c4cccs4)[nH]n3)CC2)c1	733
COC(=O)c1c(C)[nH]c(C(=O)N2CCC(CC(=O)NC(C)C)CC2)c1C	663
Cc1cccc(OCc2nc(-c3ccc4c(c3)ncn4CCN3CCCC3)no2)c1	673
Cc1nn(CC(=O)NCCCN(C)C2CCCCC2)c(=O)c2nn(-c3ccccc3)c(C)c12	634
COC(=O)c1sccc1NC(=O)N1CCCC1c1cccc(C)c1 (stereo not drawn)	1120
CCCn1cc(S(=O)(=O)Nc2ccc(Cl)cc2F)c2cccnc21	980
O=C(NCc1ccccc1)C1CCN(c2cnc(N3CCCC3)nc2)CC1	639
O=C(NCc1ccco1)c1c(O)c2cccnc2n(Cc2ccccc2)c1=O	1250
C=CCNc1ncnc2ccc(Br)cc12	671
COc1ccc(-c2noc(Cn3ccnc3)n2)cc1OC	586
CC(=O)N1c2ccc(S(=O)(=O)N3CCCCCC3)cc2CC1C(=O)NCCc1ccc(C)cc1 (stereo not drawn)	957
COC(=O)c1cccc(N2C=C(C#N)S(=O)(=O)c3cc(F)ccc32)c1	872
O=C(Cn1nc2n(c1=O)CCCC2)Nc1cccc(C(F)(F)F)c1	705
COc1cccc(-n2c(N3CCCC(C(=O)NCc4cccs4)C3)nc3ccsc3c2=O)c1 (stereo not drawn)	822
COc1ccc(NC(=O)N2C[C@@H]3C[C@H]2C[C@@H]3NC(=O)c2ccccc2)c(OC)c1	647
COc1ccccc1-c1nc2cnccn2c1NCCC(=O)Nc1cc(F)ccc1F	723
CCC(=O)N1CCc2c(C(=O)NC3CC3)cccc21	653
COc1ccccc1NS(=O)(=O)c1ccc2c(c1)C(=O)N(C)c1ncccc1O2	885
COc1cccc(CNC(=O)NCCC2CCN(S(=O)(=O)c3ccc(C)cc3)CC2)c1	873

SMILES	RP-LC retention time [s]
O=S(=O)(c1ccc(-c2nnc(C3CCC3)o2)o1)N1CCCC1	846
CCOc1ccc(-c2noc(Cn3c(=O)n(-c4ccc(C)cc4)c(=O)c4sccc43)n2)cc1OC	987
O=C(C1=CN(c2ccc(F)cc2)c2cc(F)ccc2S1(=O)=O)N1CCCCC1	858
CCOc1ccc(NC(=O)Cn2nc(N3CCOCC3)c3ccccc3c2=O)cc1	774
COC(=O)c1c(C)[nH]c(C(=O)N2CCC(CC(=O)NCCN3CCCCCC3)CC2)c1C	594
CN(C)c1cc(N2CCCC(NC(=O)c3cccnc3)C2)ncn1 (stereo not drawn)	553
Cc1[nH]c2ccccc2c1C(=O)CSc1nnc2sc3ccccc3n12	829
CCC(=O)Nc1ccc2c(c1)Sc1ncccc1C(=O)N2C(C)C	704
Cc1nc(N2CCN(c3ccccn3)CC2)nc2c1C(=O)CC(c1ccccc1F)C2 (stereo not drawn)	735
O=C(c1csc(S(=O)(=O)N2CCC(C(=O)N3CCCCCC3)CC2)c1)N1CCOCC1	722
CN(C)C(=O)c1n[nH]c2c1CN(C(=O)c1cccc(Br)c1)CC2	654
COc1ccccc1NC(=O)CSc1nc2ccccc2c(=O)n1C1CCCCC1	1230
CCOc1ccc(-c2nnc(SCC(=O)Nc3nnc(C)s3)o2)cc1	776
CCCCN1CCN(C(=O)COc2ccc(NC(=O)C3CC3)cn2)CC1	570
CC(C)c1noc(-c2ccnc(-n3cnc(C(=O)NCc4ccco4)c3)c2)n1	809
CCOCCCNC(=O)c1c2c(cn(-c3ccccc3)c1=O)C(=O)CC(C)(C)C2	591
COC(=O)CC1CN=C(Nc2nc(C)c3ccccc3n2)NC1=O (stereo not drawn)	615
O=C(NCCN1CCCCC1)c1cc2c(s1)CCN(C(=O)c1ccc(Cl)cc1)C2	650
CC(C)CNC(=O)c1ccc2c(c1)CCCN2S(C)(=O)=O	774
COc1cccc(NC(=O)N(Cc2nnc3n2CCCCC3)c2cccc(OC)c2)c1	718
Cc1cccc(S(=O)(=O)N2CCc3nc(-c4ccccc4)ncc3C2)c1C	1160
CCN1C(=O)c2cccnc2Sc2cc(CNC(=O)c3cccs3)ccc21	737
